Experimental data as given in US9643964B2, “3-(2-aminopyrimidin-4-yl)-5-(3-hydroxypropynyl)-1H-pyrrolo[2,3-C]pyridine derivatives as NIK inhibitors for the treatment of cancer” (Janssen Pharmaceutica NV, priority 2013, dated 2017).

Columns and labels:
[1] = tested on: LP-1 cells; test: Biological Assay C: antiproliferative activity on LP-1 cells (CellTiter-Glo); assay type: cell-based, human; details: Homo sapiens, LP-1, 72 h, 72 hr treatment; averaged values
Experimental: (§1) Determination of Antiproliferative Activity on LP-1, L-363 and JJN-3 Cells
(§2) All compounds tested were dissolved in DMSO and further dilutions were made in culture medium. Final DMSO concentration was 0.3% (v/v) in cell proliferation assays. Viability was assessed using CellTiter-Glo cell viability assay kit (Promega). The human LP-1, L-363 and JJN-3 cells (DSMZ) were cultured in RPMI 1640 medium supplemented with 2 mM L-glutamine, and 10% fetal calf serum (PAA). Cells were routinely kept as suspension cells at 37° C. in a humidified 5% CO2 atmosphere. Cells were passaged at a seeding density of 0.2×10^6/ml twice a week. Cells were seeded in black tissue culture treated 96-well plates (Perkin Elmer). Densities used for plating ranged from 2,000 to 6,000 cells per well in a total volume of 75 μl medium. After twenty four hours, drugs and/or solvents were added (25 μl) to a final volume of 100 μl. Following 72 hr of treatment plates were removed from the incubator and allowed to equilibrate to room temperature for approx 10 min. 100 μl CellTiter-Glo reagent was added to each well that was then covered (Perkin Elmer Topseal) and shaken on plate shaker for 10 min. Luminescence was measured on a HTS Topcount (Perkin Elmer). Within an experiment, the results for each treatment were the mean of 2 replicate wells. For initial screening purposes, compounds were tested using a 9 point dilution curve (serial 1:3 dilutions). For each experiment, controls (containing no drug) and a blank incubation (containing cells read at the time of compound addition) were run in parallel. The blank value was subtracted from all control and sample values. For each sample, the mean value for cell growth (in relative light units) was expressed as a percentage of the mean value for cell growth of the control.

[2] = target: T1, Recombinant Human NF-kappaB-Inducing Kinase (NIK/MAP3K14) (Homo sapiens, UniProt Q99558); test: Biological Assay A2: inhibition of auto-phosphorylation of recombinant human NIK/MAP3K14 (AlphaScreen); assay type: biochemical; details: for IC50: auto-phosphorylation, averaged over all measurements on all batches, read-out: αscreen IC50; for inhibition at 10 µM: read-out: αscreen Max % Inhib @ 10 μM (Average)
T1 sequence (Q99558 whole entry): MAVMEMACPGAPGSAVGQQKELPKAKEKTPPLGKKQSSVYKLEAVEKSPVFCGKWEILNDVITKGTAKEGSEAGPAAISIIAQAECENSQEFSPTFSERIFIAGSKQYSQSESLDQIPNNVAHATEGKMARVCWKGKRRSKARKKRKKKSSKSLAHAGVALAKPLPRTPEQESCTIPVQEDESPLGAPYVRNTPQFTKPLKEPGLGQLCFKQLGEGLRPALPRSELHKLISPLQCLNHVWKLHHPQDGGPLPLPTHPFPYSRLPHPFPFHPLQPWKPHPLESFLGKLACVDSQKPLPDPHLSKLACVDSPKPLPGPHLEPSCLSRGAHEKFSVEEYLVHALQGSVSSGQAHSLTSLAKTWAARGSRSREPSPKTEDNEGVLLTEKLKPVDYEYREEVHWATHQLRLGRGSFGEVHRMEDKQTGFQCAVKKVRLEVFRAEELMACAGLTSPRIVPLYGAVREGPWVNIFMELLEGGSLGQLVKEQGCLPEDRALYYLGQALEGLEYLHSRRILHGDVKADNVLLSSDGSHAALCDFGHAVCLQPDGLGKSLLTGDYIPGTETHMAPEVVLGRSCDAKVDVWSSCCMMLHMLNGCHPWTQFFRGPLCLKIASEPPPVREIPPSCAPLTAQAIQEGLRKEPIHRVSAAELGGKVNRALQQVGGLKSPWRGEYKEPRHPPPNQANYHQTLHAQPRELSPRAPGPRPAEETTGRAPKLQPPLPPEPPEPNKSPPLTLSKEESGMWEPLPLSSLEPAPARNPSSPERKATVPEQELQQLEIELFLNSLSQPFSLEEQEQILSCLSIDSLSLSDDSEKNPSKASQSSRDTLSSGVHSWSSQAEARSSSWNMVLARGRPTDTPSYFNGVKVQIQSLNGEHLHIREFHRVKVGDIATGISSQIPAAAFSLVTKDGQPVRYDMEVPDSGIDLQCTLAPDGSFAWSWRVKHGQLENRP
Experimental: Inhibition of Auto-Phosphorylation of Recombinant Human NF-kappaB-Inducing Kinase (NIK/MAP3K14) Activity (AlphaScreen®)
NIK/MAP3K14 auto-phosphorylation activity was measured using the AlphaScreen® (αscreen) format (Perkin Elmer). All compounds tested were dissolved in dimethyl sulfoxide (DMSO) and further dilutions were made in assay buffer. Final DMSO concentration was 1% (v/v) in assays. Assay buffer was 50 mM Tris pH 7.5 containing 1 mM EGTA (ethylene glycol tetraacetic acid), 1 mM DTT (dithiothreitol), 0.1 mM Na3VO4, 5 mM MgCl2, 0.01% Tween 20. Assays were carried out in 384 well Alphaplates (Perkin Elmer). Incubations consisted of compound, 25 microM Adenosine-5′-triphosphate (ATP), and 0.2 nM NIK/MAP3K14. Incubations were initiated by addition of GST-tagged NIK/MAP3K14 enzyme, carried out for 1 h at 25° C. and terminated by addition of stop buffer containing anti-phospho-IKK Ser176/180 antibody. Protein A Acceptor and Glutathione-Donor beads were added before reading using an EnVision® Multilabel Plate Reader (Perkin Elmer). Signal obtained in the wells containing blank samples was subtracted from all other wells and IC50's were determined by fitting a sigmoidal curve to % inhibition of control versus Log10 compound concentration.

[3] = tested on: L-363 cells; test: Biological Assay C: antiproliferative activity on L-363 cells (CellTiter-Glo); assay type: cell-based, human; details: Homo sapiens, L-363, 72 h, 72 hr treatment; averaged values
Experimental: as §1, §2

[4] = target: T1, Recombinant Human NF-kappaB-Inducing Kinase (NIK/MAP3K14); test: Biological Assay A: inhibition of recombinant human NIK/MAP3K14 activity (MBP phosphorylation, Mesoscale); assay type: biochemical; details: for IC50: averaged over all measurements on all batches, read-out: Biochemical (MSD MBP) IC50; for inhibition at 10 µM: read-out: Biochemical (MSD MBP) Max % Inhib @ 10 μM (Average)
Experimental: Inhibition of Recombinant Human NF-kappaB-Inducing Kinase (NIK/MAP3K14) Activity
Assay buffer was 50 mM Tris pH 7.5 containing 1 mM EGTA (ethylene glycol tetraacetic acid), 1 mM DTT (dithiothreitol), 0.1 mM Na3VO4, 5 mM MgCl2, 0.01% Tween 20. Assays were carried out in 384 well Mesoscale high binding plates which had been coated with myelin basic protein (MBP) and blocked with bovine serum albumin to prevent non-specific protein binding. All compounds tested were dissolved in dimethyl sulfoxide (DMSO) and further dilutions were made in assay buffer. Final DMSO concentration was 1% (v/v) in assays. Incubations consisted of compound (1% DMSO in control and blank wells), 25 μM Adenosine-5′-triphosphate (ATP), and 10 nM NIK/MAP3K14 substituting enzyme with buffer in the blank wells. Incubations were carried out for 1 h at 25° C. and were followed by washing and sequential incubation with rabbit anti-phospho-MBP and anti-rabbit Ig Sulfotag antibody before reading bound Sulfotag on a Mesoscale Discovery. Signal obtained in the wells containing blank samples was subtracted from all other wells and IC50's were determined by fitting a sigmoidal curve to % inhibition of control versus Log10 compound concentration.

[5] = tested on: JJN-3 cells; test: Biological Assay C: antiproliferative activity on JJN-3 cells (CellTiter-Glo); assay type: cell-based, human; details: Homo sapiens, JJN-3, 72 h, 72 hr treatment; averaged values
Experimental: as §1, §2

| Structure (SMILES) | EC50 [1] [nM] | IC50 [2] [nM] | EC50 [3] [nM] | IC50 [4] [nM] | EC50 [5] [nM] | inhibition at 10 µM [2] [%] | inhibition at 10 µM [4] [%] |
| --- | --- | --- | --- | --- | --- | --- | --- |
| CC(C)n1cc(-c2ccnc(N)n2)c2cc(C#CCO)ncc21 [Compound 13] | 710 | 150 | 36 | 30 | 150 | – | – |
| COCCC(C)(O)C#Cc1cc2c(-c3ccnc(N)n3)cn(CC(C)(C)O)c2cn1 (centres unmarked) [Compound 39] | – | 1600 | – | 930 | – | – | – |
| CC(C)(O)Cn1cc(-c2ccnc(N)n2)c2cc(C#CC(C)(O)C3(C)COC3)ncc21 (centres unmarked) [Compound 47] | > 10000 | 9200 | > 10000 | 2900 | > 10000 | – | – |
| CC(C)(O)Cn1cc(-c2ccnc(N)n2)c2cc(C#CCO)ncc21 [Compound 62] | 18000 | 680 | 880 | 250 | 970 | – | – |
| CN(C)C(=O)C(C)(O)C#Cc1cc2c(-c3ccnc(N)n3)cn(CC(C)(C)O)c2cn1 (centres unmarked) [Compound 63] | – | 780 | – | 600 | – | – | – |
| CC(C)(O)C#Cc1cc2c(-c3nc(N)ncc3C(F)(F)F)cn(CC3CCOCC3)c2cn1 [Compound 71] | 2600 | 61 | 520 | 26 | 550 | – | – |
| CC(C)(O)C#Cc1cc2c(-c3nc(N)ncc3C(F)(F)F)cn(CC(C)(C)O)c2cn1 [Compound 72] | 7200 | 38 | 190 | 6.3 | 320 | – | – |
| CC(C)(O)C#Cc1cc2c(-c3nc(N)ncc3F)cn(CC3CCOCC3)c2cn1 [Compound 73] | 1600 | 71 | 140 | 56 | 190 | – | – |
| CC(C)(O)C#Cc1cc2c(-c3nc(N)ncc3F)cn(C3COC3)c2cn1 [Compound 74] | 1100 | 43 | 45 | 17 | 76 | – | – |
| COCCn1cc(-c2ccnc(N)n2)c2cc(C#CC3(O)CCN(C)CC3)ncc21 [Compound 123] | – | – | – | – | – | 27 | 23 |
| COCCn1cc(-c2ccnc(N)n2)c2cc(C#CC(C)(O)C3CNC3)ncc21 (centres unmarked) [Compound 124] | – | – | – | – | – | 33 | 40 |
| COCCn1cc(-c2ccnc(N)n2)c2cc(C#CC3(O)CNC3)ncc21 [Compound 125] | – | – | – | – | – | 24 | 18 |
| CC(O)(C#Cc1cc2c(-c3nc(N)ncc3F)cn(C3CCN(CCC(F)(F)F)CC3)c2cn1)C1CC1 (centres unmarked) [Compound 167] | 1000 | 58 | 390 | – | 390 | – | – |
| COCCOc1cnc(N)nc1-c1cn(C(C)C)c2cnc(C#CC(C)(O)C3CC3)cc12 (centres unmarked) [Compound 168] | 93 | 36 | 23 | – | 27 | – | – |
